Measurements: patent publication US20020025940A1, “Methods and compositions for sensitive and rapid, functional identification of genomic polynucleotides and use for cellular assays in drug discovery” (Aurora Biosciences Corporation, priority 1997, published 2002)

Experiments:
Type in all cases: cell-based, human
[1] = tested on: induced BLEC Jurkat clones; assay: Characterization of induced BLEC Jurkat clones, change in 460/530 ratio; conditions: PHA 10 microgram/ml, Thaps 1 microM, PMA 8 nM, Anti-CD3 2 microgram/ml
From the text: These clones represent cells in which the trapping construct had integrated into a gene up regulated by PHA (T-cell) activation. Thus, these cells report the transcriptional activation of a gene upon cellular activation. Individual clones were identified and isolated by FACS using CCF2/AM to detect beta-lactamase activity. This clone isolation method, the induced sorting paradigm, used three sequential and independent stimulation and sorting protocols. […] These control cells were all green.
These isolated clones were expanded and tested for PHA inducibility by microscopic inspection with and without PHA stimulation in the presence of CCF2/AM. A total of fifty-five PHA inducible clones were identified using this procedure. The PHA inducibility for these clones ranged from a 1.5 to 40 fold change in the 460/530 ratio as compared to unstimulated control cells. Genomic Southern analysis using a DNA probe encoding beta-lactamase established that these clones represented 34 independent stable vector integration events. A list of clones obtained by the methods of the present invention and their characteristics is provided below in Table 6 and Table 7.
In addition to PHA inducible clones, Phobol 12-myristate 13-acetate (PMA) (Calbiochem), Thapsigargin (Thaps) (Calbiochem), and PMA+Thaps inducible clones were isolated using the general procedure set forth above using the indicated inducer rather than PHA. PMA is a specific activator of PKC (protein kinase C) and Thaps is a specific activator of intracellular calcium ion release (Thaps). These clones were isolated using three rounds of FACS using the general procedures described for the PHA inducible clones in Example 5. In such instances, other stimulants were substituted for PHA. PMA was provided at 8 nM, Thaps was provided at 1 microM. When these two stimulants were combined, their concentration was not changed. […] By using varied selection conditions, it is possible to isolate functionally distinct clones downstream of the desired signaling target.
Table 7 and Table 8 provide data similar to that provided in Table 5 for all of the clones obtained by the methods of Examples 5 to 7.

[2] = tested on: clone C2 (3×NFAT response element linked to beta-lactamase, M1 muscurinic receptor); assay: Relative beta-lactamase activity of control clone C2; conditions: PMA 8 nM, Thaps 1 microM, CsA 100 nM, PHA 10 microgram/ml
From the text: (§1) Isolated clones from PHA-induced (Example 6) and PHA-repressed (Example 7) procedures described above were characterized to determine the specificity of their modulation and time required for induction or repression. Clones were stimulated with multiple activators or inhibitors over a one to twenty-four hour time interval.
(§2) In this study, PMA, which is a PKC activator, Thapsigargin which increases intracellular calcium, PHA which activates the T-cell receptor pathway, and cyclosporin A which is a clinically approved immunosuppressant that inhibits the Ca^2+ dependent phosphates calcineurin were investigated for their ability to modulate beta-lactamase expression in PHA induced and repressed BLEC clones.

BLEC Jurkat clones = assay: Specificity of activated BLEC Jurkat clones, relative beta-lactamase activity; conditions: PMA 8 nM, Thaps 1 microM, CsA 100 nM, PHA 10 microgram/ml
From the text: as §1, §2

CCCCCCCCCCCCCC(=O)O[C@@H]1[C@@H](C)[C@@]2(O)[C@@H](C=C(CO)C[C@]3(O)C(=O)C(C)=C[C@@H]23)[C@@H]2C(C)(C)[C@]12OC(C)=O [PMA, Phobol 12-myristate 13-acetate]
Change in 460/530 ratio in the indicated clone by the following activator ([1]; clone J83PI1): 3-4 | Change in 460/530 ratio in the indicated clone by the following activator ([1]; clone J83PI2): 7-8 | Change in 460/530 ratio in the indicated clone by the following activator ([1]; clone J83PI3): 3-4 | Change in 460/530 ratio in the indicated clone by the following activator ([1]; clone J83PI4): 0 | Change in 460/530 ratio in the indicated clone by the following activator ([1]; clone J83PI6): 0 | Change in 460/530 ratio in the indicated clone by the following activator ([1]; clone J83PI7): 2 | Change in 460/530 ratio in the indicated clone by the following activator ([1]; clone J83PI8): 4-5 | Change in 460/530 ratio in the indicated clone by the following activator ([1]; clone J83PI9): 0 | Change in 460/530 ratio in the indicated clone by the following activator ([1]; clone J83PI13): 0 | Change in 460/530 ratio in the indicated clone by the following activator ([1]; clone J83PI14): 2 | Change in 460/530 ratio in the indicated clone by the following activator ([1]; clone J83PI15): 3 | Change in 460/530 ratio in the indicated clone by the following activator ([1]; clone J83PI16): 3-4 | Change in 460/530 ratio in the indicated clone by the following activator ([1]; clone J83PI18): 5 | Change in 460/530 ratio in the indicated clone by the following activator ([1]; clone J83PI19): 3 | Change in 460/530 ratio in the indicated clone by the following activator ([1]; clone J97PI1): 3-4 | Change in 460/530 ratio in the indicated clone by the following activator ([1]; clone J97PI3): 1-2 | Change in 460/530 ratio in the indicated clone by the following activator ([1]; clone J97PI4): 1-2 | Change in 460/530 ratio in the indicated clone by the following activator ([1]; clone J97PI5): 1.5 | Change in 460/530 ratio in the indicated clone by the following activator ([1]; clone J97PI6): 1-2 | Change in 460/530 ratio in the indicated clone by the following activator ([1]; clone J97PI7): 1-2 | Change in 460/530 ratio in the indicated clone by the following activator ([1]; clone J97PI8): 1-2 | Change in 460/530 ratio in the indicated clone by the following activator ([1]; clone J97PI9): 1-2 | Change in 460/530 ratio in the indicated clone by the following activator ([1]; clone J97PI10): 1-2 | Change in 460/530 ratio in the indicated clone by the following activator ([1]; clone J97PI11): 2 | Change in 460/530 ratio in the indicated clone by the following activator ([1]; clone J97PI12): 2-3 | Change in 460/530 ratio in the indicated clone by the following activator ([1]; clone J97PI13): 1-2 | Change in 460/530 ratio in the indicated clone by the following activator ([1]; clone J97PI14): 2 | Change in 460/530 ratio in the indicated clone by the following activator ([1]; clone J97PI15): 1-2 | Change in 460/530 ratio in the indicated clone by the following activator ([1]; clone J97PI17): 1-2 | Change in 460/530 ratio in the indicated clone by the following activator ([1]; clone J97PI18): 1-2 | Change in 460/530 ratio in the indicated clone by the following activator ([1]; clone J97PI19): 1-2 | Change in 460/530 ratio in the indicated clone by the following activator ([1]; clone J97PI20): 1-2 | Change in 460/530 ratio in the indicated clone by the following activator ([1]; clone J97PI21): 1-2 | Change in 460/530 ratio in the indicated clone by the following activator ([1]; clone J97PI22): 2-3 | Change in 460/530 ratio in the indicated clone by the following activator ([1]; clone J97PI23): 1-2 | Change in 460/530 ratio in the indicated clone by the following activator ([1]; clone J97PI24): 2-3 | Change in 460/530 ratio in the indicated clone by the following activator ([1]; clone J97PI116): 2-3 | Change in 460/530 ratio in the indicated clone by the following activator ([1]; clone J325B5): 2-3 | Change in 460/530 ratio in the indicated clone by the following activator ([1]; clone J325B11): 2-3 | Change in 460/530 ratio in the indicated clone by the following activator ([1]; clone J325E1): 8 | Change in 460/530 ratio in the indicated clone by the following activator ([1]; clone J325E3): 2-3 | Change in 460/530 ratio in the indicated clone by the following activator ([1]; clone J325E6): 3-4 | Change in 460/530 ratio in the indicated clone by the following activator ([1]; clone J325G4): 3-4 | Change in 460/530 ratio in the indicated clone by the following activator ([1]; clone J326C9): 2-3 | Change in 460/530 ratio in the indicated clone by the following activator ([1]; clone J326D4): 10 | Change in 460/530 ratio in the indicated clone by the following activator ([1]; clone J326D7): 10 | Change in 460/530 ratio in the indicated clone by the following activator ([1]; clone J326F7): 10 | Change in 460/530 ratio in the indicated clone by the following activator ([1]; clone J326H4): 10 | Change in 460/530 ratio in the indicated clone by the following activator ([1]; clone J389PM2): 3-4 | Change in 460/530 ratio in the indicated clone by the following activator ([1]; clone J389PM3): 2-3 | Change in 460/530 ratio in the indicated clone by the following activator ([1]; clone J389PM5): 3-4 | Change in 460/530 ratio in the indicated clone by the following activator ([1]; clone J389PM7): 1-2 | Change in 460/530 ratio in the indicated clone by the following activator ([1]; clone J389PM8): 2-3 | Change in 460/530 ratio in the indicated clone by the following activator ([1]; clone J389PT4): 12 | Change in 460/530 ratio in the indicated clone by the following activator ([1]; clone J389PTt): 8-9 | Change in 460/530 ratio in the indicated clone by the following activator ([1]; clone J389TI1): 1-2 | Change in 460/530 ratio in the indicated clone by the following activator ([1]; clone J389TI4): 1-2 | Relative Beta-Lactamase Activity of the Clone by the Indicated Stimulus After 24 hours (% of maximum activated stimuli) [2]: <1% | Relative Beta-Lactamase Activity of the Clone by the Indicated Stimulus After 24 hours (% of maximum activated stimuli) (BLEC Jurkat clones; clone J32-6D4): 60% | Relative Beta-Lactamase Activity of the Clone by the Indicated Stimulus After 24 hours (% of maximum activated stimuli) (BLEC Jurkat clones; clone J83 97-PPTR2 (repressed paradigm)): 100% | Relative Beta-Lactamase Activity of the Clone by the Indicated Stimulus After 24 hours (% of maximum activated stimuli) (BLEC Jurkat clones; clone J83-PI9): <1% | Relative Beta-Lactamase Activity of the Clone by the Indicated Stimulus After 24 hours (% of maximum activated stimuli) (BLEC Jurkat clones; clone J83-PTI8): 80% | Relative Beta-Lactamase Activity of the Clone by the Indicated Stimulus After 24 hours (% of maximum activated stimuli) (BLEC Jurkat clones; clone J389-PTI4): 90%
